In patent US4156777A, “Process for producing glucopyranose-nitrosourea compounds and novel compounds included therein” (Tokyo Tanabe Company, Limited, priority 1977, dated 1979):
Converted amounts (≈) assume the structure as drawn. Like-named read-outs stand apart in the source and are kept apart here.

Legend:
[1] = cited from earlier work
leukemia L-1210 = assay: Antitumor activity against leukemia L-1210 implanted in BDF1 mice (ILS, 60 days survivors); format: in vivo
Excerpt: Test compounds were given to BDF1 mice 24 hrs after implantation of 10^6 cells of leukemia L-1210 in each animal, through single intraperitoneal administration, intraperitoneal administration for 5 successive days, single oral administration or oral administration for 5 successive days, whereupon the increase in life span (referred to as "ILS") and number of 60 days survivors of test animals were estimated, said test of antitumor activity being that according to the method of the National Cancer Center, Tokyo [A. Hoshi et al: Farmashia, 9 (1973), 464]. In the tests, the compounds were dissolved in physiological saline solution just before administration.
^a i.p.: intraperitoneal administration p.o: oral administration
D1 : single administration D1~5 : administration for 5
^b percentage calculated from mean survival time over control
^c survivors/six animals

Acute toxicity (LD50) = format: in vivo, male Wister rats; details: rat, in vivo, after 1 week
Description: Test compounds were dissolved in physiological saline solution just before their dosage and administered to male Wister rats, intraperitoneally, intravenously and orally. After 1 week, the LD50 of each compound was calculated from the mortality of the test animals by the Lichfield-Wilcoxon Method.
i.v.: intravenous administration

[2] = Diabetogenic activity (blood glucose concentration after intravenous administration); format: in vivo, male Wister rats
Description: 40-96 mg/kg of the test compounds were administered intravenously to starved male Wister rats weighing 240-260 g each, and the blood glucose concentrations of the test animals were estimated by the glucose exidase method [L. L. Saloman et al: Anal. Chem., 31 (1959), 453], in which test the compounds were dissolved in physiological saline solution just before administration. […]

[3] = Effect on respiration, blood pressure, heart rate and electrocardiogram; format: in vivo, Beagle dogs; details: dog, in vivo, iv; injected into brachial veins, anesthetized Beagle dogs; read-out: maximum dosage not effected on respiration, blood pressure, heart rate and electrocardiogram
Description: Beagle dogs of both sexes weighing about 10 kg were anesthetized with pentobarbital sodium (30 mg/kg, i.v.), and immobilized in the supine position. Test compounds dissolved in physiological saline solution were injected into the brachial veins of the animals and the arteries at cannulated positions were treated with heparin sodium as anticoagulant.
The respiration rate of each animal was estimated with a respirometer (Nihonkohden, RP-3) through a tracheal cannula, the blood pressure with an electro-haemodynamometer (Nihonkohden, MP-4T) attached surgically to the femoral artery, and the heart rate with a pulse-rate tachometer (Nihonkohden, RT-2) through the trigger pulse of the blood pressure.

[4] = Solubility in water at 25° C.; format: physicochemical; details: amount soluble in 1 ml water at 25° C.
[5] = known compounds, generally seen
[6] = 40 mg/kg i.v., 0 hr after treatment
[7] = 40 mg/kg i.v., 2 hr after treatment
[8] = 40 mg/kg i.v., 4 hr after treatment
[9] = 40 mg/kg i.v., 7 hr after treatment
[10] = 40 mg/kg i.v., 10 hr after treatment
[11] = 40 mg/kg i.v., 24 hr after treatment
[12] = 40 mg/kg i.v., 48 hr after treatment
[13] = 60 mg/kg i.v., 0 hr after treatment
[14] = 60 mg/kg i.v., 2 hr after treatment
[15] = 60 mg/kg i.v., 4 hr after treatment
[16] = 60 mg/kg i.v., 7 hr after treatment
[17] = 60 mg/kg i.v., 10 hr after treatment
[18] = 60 mg/kg i.v., 24 hr after treatment
[19] = 60 mg/kg i.v., 48 hr after treatment

For `CO[C@H]1O[C@H](CO)[C@@H](O)[C@H](O)[C@H]1NC(=O)N(CCCl)N=O` [Example 2MCαG, 1-(2-chloroethyl)-3-(methyl α-D-glucopyranos-2-yl)-1-nitrosourea], the “diabetogenic activity, decreasing order” value [1, 5] is listed as “SZ>DCNU>GANU> 2MCαG≈6MCαG”, the ILS (leukemia L-1210; 0.5 mg/kg/day, i.p. D1~5) is listed as 15% and the ILS (leukemia L-1210; 1.0 mg/kg/day, i.p. D1~5) is listed as 48%. The ILS (leukemia L-1210; 2.0 mg/kg/day, i.p. D1~5) was > 249%, the “Survivors (60 days)” value (leukemia L-1210; 2.0 mg/kg/day, i.p. D1~5) was 1/6 and the ILS (leukemia L-1210; 2.0 mg/kg/day, p.o. D1~5) was > 143%. The “Survivors (60 days)” value (leukemia L-1210; 2.0 mg/kg/day, p.o. D1~5) was 1/6, the ILS (leukemia L-1210; 3.2 mg/kg/day, i.p. D1~5) was > 394% and the “Survivors (60 days)” value (leukemia L-1210; 3.2 mg/kg/day, i.p. D1~5) was 3/6. The ILS (leukemia L-1210; 3.2 mg/kg/day, p.o. D1~5) was > 246%, the “Survivors (60 days)” value (leukemia L-1210; 3.2 mg/kg/day, p.o. D1~5) was 2/6 and the ILS (leukemia L-1210; 4.0 mg/kg/day, i.p. D1~5) was > 349%. For the same compound, the “Survivors (60 days)” value (leukemia L-1210; 4.0 mg/kg/day, i.p. D1~5) was 2/6, the ILS (leukemia L-1210; 6.3 mg/kg/day, i.p. D1) was > 128% and the ILS (leukemia L-1210; 6.3 mg/kg/day, i.p. D1~5) was > 198%. The “Survivors (60 days)” value (leukemia L-1210; 6.3 mg/kg/day, i.p. D1~5) was 1/6, the ILS (leukemia L-1210; 6.3 mg/kg/day, p.o. D1~5) was > 380% and the “Survivors (60 days)” value (leukemia L-1210; 6.3 mg/kg/day, p.o. D1~5) was 3/6. The ILS (leukemia L-1210; 8.0 mg/kg/day, i.p. D1) was > 432%, the “Survivors (60 days)” value (leukemia L-1210; 8.0 mg/kg/day, i.p. D1) was 3/6 and the ILS (leukemia L-1210; 10.0 mg/kg/day, i.p. D1) was > 717%. For the same compound, the “Survivors (60 days)” value (leukemia L-1210; 10.0 mg/kg/day, i.p. D1) was 6/6, the ILS (leukemia L-1210; 10.0 mg/kg/day, i.p. D1~5) was > 190% and the “Survivors (60 days)” value (leukemia L-1210; 10.0 mg/kg/day, i.p. D1~5) was 1/6. The ILS (leukemia L-1210; 12.5 mg/kg/day, i.p. D1~5) was > 160%, the “Survivors (60 days)” value (leukemia L-1210; 12.5 mg/kg/day, i.p. D1~5) was 1.6 survivors/six animals and the ILS (leukemia L-1210; 12.5 mg/kg/day, p.o. D1~5) was > 211%. The “Survivors (60 days)” value (leukemia L-1210; 12.5 mg/kg/day, p.o. D1~5) was 2/6, the ILS (leukemia L-1210; 20.0 mg/kg/day, i.p. D1) was > 717% and the “Survivors (60 days)” value (leukemia L-1210; 20.0 mg/kg/day, i.p. D1) was 6/6. The ILS (leukemia L-1210; 20.0 mg/kg/day, i.p. D1~5) was 58%, the ILS (leukemia L-1210; 25.0 mg/kg/day, i.p. D1) was > 539% and the “Survivors (60 days)” value (leukemia L-1210; 25.0 mg/kg/day, i.p. D1) was 4/6. For the same compound, the LD50 at 168 h (Acute toxicity (LD50); ip) was 48 mg/kg, the LD50 at 168 h (Acute toxicity (LD50); po) was 49 mg/kg and the “Blood Glucose Concentration” value [2, 6] was 71.0 mg/dL. The “Blood Glucose Concentration” value [2, 7] was 73.5 mg/dL, the “Blood Glucose Concentration” value [2, 8] was 70.6 mg/dL and the “Blood Glucose Concentration” value [2, 9] was 72.3 mg/dL. The “Blood Glucose Concentration” value [2, 10] was 68.3 mg/dL, the “Blood Glucose Concentration” value [2, 11] was 72.7 mg/dL and the “Blood Glucose Concentration” value [2, 12] was 70.4 mg/dL. The “Blood Glucose Concentration” value [2, 13] was 70.4 mg/dL, the “Blood Glucose Concentration” value [2, 14] was 74.2 mg/dL and the “Blood Glucose Concentration” value [2, 15] was 68.2 mg/dL. The “Blood Glucose Concentration” value [2, 16] was 68.7 mg/dL, the “Blood Glucose Concentration” value [2, 17] was 67.5 mg/dL and the “Blood Glucose Concentration” value [2, 18] was 73.8 mg/dL. The “Blood Glucose Concentration” value [2, 19] was 70.8 mg/dL, the “blood glucose concentrations versus control, in words” value ([2]; i.v., rats) was “substantially the same blood glucose concentrations as that in the control” and the NOAEL [3] was 30 mg/kg. The solubility [4] was 45 mg/mL (≈ 137 mM).
For `O=NN(CCCl)C(=O)N[C@@H]1O[C@H](CO)[C@@H](O)[C@H](O)[C@H]1O` [GANU, 1-(2-chloroethyl)-3-(β-D-glucopyranosyl)-1-nitrosourea], the “diabetogenic activity, decreasing order” value [1, 5] is listed as “SZ>DCNU>GANU> 2MCαG≈6MCαG”, the ILS (leukemia L-1210; 1.0 mg/kg/day, i.p. D1) is listed as 42% and the ILS (leukemia L-1210; 5.0 mg/kg/day, i.p. D1) is listed as > 280%. For the same compound, the “Survivors (60 days)” value (leukemia L-1210; 5.0 mg/kg/day, i.p. D1) was 2/6, the ILS (leukemia L-1210; 5.0 mg/kg/day, p.o. D1) was 5% and the ILS (leukemia L-1210; 10.0 mg/kg/day, i.p. D1) was > 295%. The “Survivors (60 days)” value (leukemia L-1210; 10.0 mg/kg/day, i.p. D1) was 2/6, the ILS (leukemia L-1210; 10.0 mg/kg/day, p.o. D1) was 45% and the ILS (leukemia L-1210; 15.0 mg/kg/day, i.p. D1) was > 507%. For the same compound, the “Survivors (60 days)” value (leukemia L-1210; 15.0 mg/kg/day, i.p. D1) was 5/6, the ILS (leukemia L-1210; 20.0 mg/kg/day, i.p. D1) was > 518% and the “Survivors (60 days)” value (leukemia L-1210; 20.0 mg/kg/day, i.p. D1) was 5/6. The ILS (leukemia L-1210; 20.0 mg/kg/day, p.o. D1) was 75%, the ILS (leukemia L-1210; 25.0 mg/kg/day, i.p. D1) was > 472% and the “Survivors (60 days)” value (leukemia L-1210; 25.0 mg/kg/day, i.p. D1) was 5/6. It also gave an ILS (leukemia L-1210; 25.0 mg/kg/day, p.o. D1) of 110%, an ILS (leukemia L-1210; 35.0 mg/kg/day, p.o. D1) of 70% and an LD50 at 168 h (Acute toxicity (LD50); ip) of 24 mg/kg. For the same compound, the LD50 at 168 h (Acute toxicity (LD50); iv) was 10 mg/kg, the LD50 at 168 h (Acute toxicity (LD50); po) was 21 mg/kg and the “Blood Glucose Concentration” value [2, 6] was 67.8 mg/dL. For the same compound, the “Blood Glucose Concentration” value [2, 7] was 70.4 mg/dL, the “Blood Glucose Concentration” value [2, 8] was 71.3 mg/dL and the “Blood Glucose Concentration” value [2, 9] was 94.4 mg/dL. The “Blood Glucose Concentration” value [2, 10] was 98.2 mg/dL, the “Blood Glucose Concentration” value [2, 11] was 120.3 mg/dL and the “Blood Glucose Concentration” value [2, 12] was 186.5 mg/dL. The “Blood Glucose Concentration” value [2, 13] was 67.3 mg/dL, the “Blood Glucose Concentration” value [2, 14] was 71.2 mg/dL and the “Blood Glucose Concentration” value [2, 15] was 72.6 mg/dL. For the same compound, the “Blood Glucose Concentration” value [2, 16] was 95.4 mg/dL, the “Blood Glucose Concentration” value [2, 17] was 105.9 mg/dL and the “Blood Glucose Concentration” value [2, 18] was 125.5 mg/dL. For the same compound, the “Blood Glucose Concentration” value [2, 19] was 189.8 mg/dL and the NOAEL [3] was 10 mg/kg.
For `CN(N=O)C(=O)N[C@H]1C(O)O[C@H](CO)[C@@H](O)[C@@H]1O` (stereo partly drawn) [SZ, 3-(d-glucopyranos-2-yl)-1-methyl-1-nitrosourea], the “diabetogenic activity, decreasing order” value ([1]; rat, in vivo) is listed as “SZ>DCNU>GANU> 2MCαG≈6MCαG”.
